Results as given in publication PMC6825221, “In silico re-engineering of a neurotransmitter to activate KCNQ potassium channels in an isoform-specific manner” (Communications Biology, 2019).
“And” between values parts separate entries of the source, which are not always exact repeats. Identical values can stand only once.

Experiments:
KCNQ5 = KCNQ5 (Homo sapiens, UniProt Q9NR82); test: TEVC of homomeric KCNQ5 expressed in Xenopus oocytes; type: cell-based; conditions: read-out: EC50, KCNQ5 activation
Description: (§1) We generated cRNA transcripts encoding human KCNQ1, KCNQ2, KCNQ3, KCNQ4, KCNQ5 or GLRA1 (NM_001146040) (GenScript, Piscataway, NJ, USA) by in vitro transcription using the T7 polymerase mMessage mMachine kit (Thermo Fisher Scientific), after vector linearization, from cDNA sub-cloned into plasmids incorporating Xenopus laevis β-globin 5′ and 3′ UTRs flanking the coding region to enhance translation and cRNA stability. We quantified cRNA by spectrophotometry. We generated mutant KCNQ2 and KCNQ3 cDNAs by site-directed mutagenesis using a QuikChange kit (Stratagene, San Diego, CA) and prepared the corresponding cRNAs as above. We injected defolliculated stage V and VI Xenopus laevis oocytes (Ecocyte Bioscience, Austin, TX and Xenoocyte, Dexter, MI) with KCNQ channel α subunit (5-20 ng) or GLRA1 (20 ng) cRNAs. We incubated the oocytes at 16 °C in Barth’s saline solution (Ecocyte Bioscience) containing penicillin and streptomycin, with daily washing, for 2–5 days prior to two-electrode voltage-clamp (TEVC) recording.
(§2) We performed TEVC at room temperature using an OC-725C amplifier (Warner Instruments, Hamden, CT) and pClamp10 software (Molecular Devices, Sunnyvale, CA) 2–5 days after cRNA injection as described in the section above. For recording, oocytes were placed in a small-volume oocyte bath (Warner) and viewed them with a dissection microscope. Chemicals were sourced from Sigma, Matrix Scientific and Santa Cruz. […] All stock solutions were diluted in bath solution on the day of experiments. KCNQ2/3 channel activation was screened for using either 30 µM or 100 µM concentrations of each of the six compounds, then dose responses were conducted as appropriate. […] Currents were recorded in response to voltage pulses between −120 or −80 mV and + 40 mV at 20 mV intervals from a holding potential of −80 mV, to yield current-voltage relationships, current magnitude, and for quantifying activation rate. We analyzed data using Clampfit (Molecular Devices) and Graphpad Prism software (GraphPad, San Diego, CA, USA); values are stated as mean ± SEM. […]

KCNQ1 = KCNQ1 (Homo sapiens, UniProt P51787); test: TEVC of homomeric KCNQ1 expressed in Xenopus oocytes; type: cell-based; conditions: dose response, ΔV0.5act
Description: as §1, §2

KCNQ3* = KCNQ3* (Homo sapiens, UniProt O43525, A315T); test: TEVC of homomeric KCNQ3* (A315T KCNQ3 mutant) expressed in Xenopus oocytes; type: cell-based
Description: We next validated the in silico predictions using two-electrode voltage clamp of homomeric neuronal KCNQ2-5 channel isoforms expressed in Xenopus laevis oocytes. […] As in previous studies[8],[10], we used the A315T KCNQ3 mutant (KCNQ3*) that ensures large enough currents to accurately quantify voltage dependence and pharmacology of homomeric KCNQ3[16].
as §1
We performed TEVC at room temperature using an OC-725C amplifier (Warner Instruments, Hamden, CT) and pClamp10 software (Molecular Devices, Sunnyvale, CA) 2–5 days after cRNA injection as described in the section above. For recording, oocytes were placed in a small-volume oocyte bath (Warner) and viewed them with a dissection microscope. Chemicals were sourced from Sigma, Matrix Scientific and Santa Cruz. […] All stock solutions were diluted in bath solution on the day of experiments. KCNQ2/3 channel activation was screened for using either 30 µM or 100 µM concentrations of each of the six compounds, then dose responses were conducted as appropriate. Bath solution was (in mM): 96 NaCl, 4 KCl, 1 MgCl2, 1 CaCl2, 10 HEPES (pH 7.6). Compounds were introduced into the oocyte recording bath by gravity perfusion at a constant flow of 1 ml per minute for 3 min prior to recording. Pipettes were of 1–2 MΩ resistance when filled with 3 M KCl. Currents were recorded in response to voltage pulses between −120 or −80 mV and + 40 mV at 20 mV intervals from a holding potential of −80 mV, to yield current-voltage relationships, current magnitude, and for quantifying activation rate. We analyzed data using Clampfit (Molecular Devices) and Graphpad Prism software (GraphPad, San Diego, CA, USA); values are stated as mean ± SEM. […]

GLRA1 = biological target: T1, GLRA1 (Homo sapiens, UniProt P23415); test: TEVC of glycine receptor GLRA1 expressed in Xenopus oocytes; type: cell-based
T1 sequence (P23415 29-457): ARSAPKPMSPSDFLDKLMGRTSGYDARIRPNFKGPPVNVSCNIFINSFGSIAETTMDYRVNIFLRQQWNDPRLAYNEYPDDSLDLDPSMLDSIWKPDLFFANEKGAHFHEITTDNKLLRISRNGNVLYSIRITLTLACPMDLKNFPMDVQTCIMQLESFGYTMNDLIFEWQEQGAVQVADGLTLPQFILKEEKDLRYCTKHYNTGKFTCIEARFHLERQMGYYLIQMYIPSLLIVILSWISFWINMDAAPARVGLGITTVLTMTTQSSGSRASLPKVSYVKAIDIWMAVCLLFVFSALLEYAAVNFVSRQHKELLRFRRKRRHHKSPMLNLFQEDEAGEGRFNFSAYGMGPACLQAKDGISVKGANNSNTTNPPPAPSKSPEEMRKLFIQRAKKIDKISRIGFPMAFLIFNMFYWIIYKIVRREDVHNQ
Description: as §1
(§3) We performed TEVC at room temperature using an OC-725C amplifier (Warner Instruments, Hamden, CT) and pClamp10 software (Molecular Devices, Sunnyvale, CA) 2–5 days after cRNA injection as described in the section above. For recording, oocytes were placed in a small-volume oocyte bath (Warner) and viewed them with a dissection microscope. Chemicals were sourced from Sigma, Matrix Scientific and Santa Cruz. […] All stock solutions were diluted in bath solution on the day of experiments. KCNQ2/3 channel activation was screened for using either 30 µM or 100 µM concentrations of each of the six compounds, then dose responses were conducted as appropriate. Bath solution was (in mM): 96 NaCl, 4 KCl, 1 MgCl2, 1 CaCl2, 10 HEPES (pH 7.6). Compounds were introduced into the oocyte recording bath by gravity perfusion at a constant flow of 1 ml per minute for 3 min prior to recording. Pipettes were of 1–2 MΩ resistance when filled with 3 M KCl. Currents were recorded in response to voltage pulses between −120 or −80 mV and + 40 mV at 20 mV intervals from a holding potential of −80 mV, to yield current-voltage relationships, current magnitude, and for quantifying activation rate. We analyzed data using Clampfit (Molecular Devices) and Graphpad Prism software (GraphPad, San Diego, CA, USA); values are stated as mean ± SEM. We plotted raw or normalized tail currents versus prepulse voltage and fitted with a single Boltzmann function:1 g=(A1−A2)/1+exp(V12−V)∕VS+A2, where g is the normalized tail conductance, A1 is the initial value at −∞, A2 is the final value at +∞, V1/2 is the half-maximal voltage of activation and Vs the slope factor. Activation, deactivation, wash-in and washout kinetics were fitted with single exponential functions to yield a τ value.

KCNQ2 = KCNQ2 (Homo sapiens, UniProt O43526); test: [3H]GABA binding and competition, oocytes expressing KCNQ2; conditions: 100 µM
KCNQ3*-W265L = KCNQ3*-W265L (Homo sapiens, UniProt O43525, A315T/W265L); test: TEVC of homomeric KCNQ3*-W265L; type: cell-based
Description: We generated cRNA transcripts encoding human KCNQ1, KCNQ2, KCNQ3, KCNQ4, KCNQ5 or GLRA1 (NM_001146040) (GenScript, Piscataway, NJ, USA) by in vitro transcription using the T7 polymerase mMessage mMachine kit (Thermo Fisher Scientific), after vector linearization, from cDNA sub-cloned into plasmids incorporating Xenopus laevis β-globin 5′ and 3′ UTRs flanking the coding region to enhance translation and cRNA stability. We quantified cRNA by spectrophotometry. We generated mutant KCNQ2 and KCNQ3 cDNAs by site-directed mutagenesis using a QuikChange kit (Stratagene, San Diego, CA) and prepared the corresponding cRNAs as above. […]
We performed TEVC at room temperature using an OC-725C amplifier (Warner Instruments, Hamden, CT) and pClamp10 software (Molecular Devices, Sunnyvale, CA) 2–5 days after cRNA injection as described in the section above. […] Currents were recorded in response to voltage pulses between −120 or −80 mV and + 40 mV at 20 mV intervals from a holding potential of −80 mV, to yield current-voltage relationships, current magnitude, and for quantifying activation rate. We analyzed data using Clampfit (Molecular Devices) and Graphpad Prism software (GraphPad, San Diego, CA, USA); values are stated as mean ± SEM. […]

KCNQ4 = KCNQ4 (Homo sapiens, UniProt P56696); test: TEVC of homomeric KCNQ4 expressed in Xenopus oocytes; type: cell-based; conditions: dose response
Description: as §1, §3

EC50 (KCNQ5): 171 ± 112 nM
effects on KCNQ1 (KCNQ1): negligible or much less potent effects
EC50 (KCNQ3*; ΔV0.5act, read-out: EC50, KCNQ3* activation): 18 ± 12 nM
inhibition of glycine-activated GLRA1 (GLRA1; 100 µM, 1 mM glycine): 35-40% and ~ 40%
activation of GLRA1 (GLRA1; 1 mM, compound alone): Neither compound activated GLRA1
inhibition of the activation of GLRA1 by 1 mM glycine (GLRA1; each at 100 µM): partially inhibited
competition of GABA binding to KCNQ2 (KCNQ2): able to compete out GABA binding
maximal efficacy, KCNQ3*-W265L versus KCNQ3* (KCNQ3*-W265L): reduced by half
reduction of sensitivity by the W265L mutation versus KCNQ3* (KCNQ3*-W265L): 44 fold
effects on KCNQ4 (KCNQ4): negligible or much less potent effects
SMILES: CS(=O)(=O)N(CC(=O)O)c1cccc(F)c1 [3FMSG]
KCNQ3* activation and deactivation rates (KCNQ3*; 100 µM): speeded activation and slowed deactivation
